Broadly, the Emax is the size of the effect at its maximum, as opposed to the concentration needed. The term EC50 denotes the midpoint of the concentration-response curve. Lower therefore signals a more potent agent.

The text below walks through data of patent US20090069302A1 (SMITHKLINE BEECHAM CORPORATION, priority 2006, published 2009).

The test addresses T1, AXOR109 (Homo sapiens, UniProt Q8TDU6).
T1 construct: expressed in transfected cells; host or cells: melanophore cells, transfected by electroporation
T1 sequence (Q8TDU6 1-330): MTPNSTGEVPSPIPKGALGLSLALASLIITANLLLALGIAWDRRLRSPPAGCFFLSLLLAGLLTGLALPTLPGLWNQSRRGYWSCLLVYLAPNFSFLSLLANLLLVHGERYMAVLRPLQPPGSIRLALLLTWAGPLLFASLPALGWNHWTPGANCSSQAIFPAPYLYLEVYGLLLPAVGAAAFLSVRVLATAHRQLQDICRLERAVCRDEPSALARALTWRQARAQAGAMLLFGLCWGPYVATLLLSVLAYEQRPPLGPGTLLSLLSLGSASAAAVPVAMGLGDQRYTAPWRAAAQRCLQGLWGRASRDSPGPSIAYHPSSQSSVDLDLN
Briefly: Human AXOR109/Melanophore Assay. It counts as cell-based. As to conditions: melanophore assay; for Emax: 1 h, normalized to alpha-MSH system max; for EC50: AXOR109 transfected melanophores. Here is the method:
AXOR109 is a Gs-coupled receptor and therefore increases intracellular cAMP leading to melanosome dispersion. Compounds of the present invention were characterized in a melanophore assay as described in Jayawickreme C K, et al., Current Protocols in Pharmacology (2005) 12.9.1-12.9.16. Briefly, melanophore cells are transfected by electroporation with AXOR109 expressing cDNA. Cells are then plated in 384 well clear bottom plates at 8E3 cells per well in 50 μl of conditioned fibroblast media (CFM). Compounds to be tested are serially diluted 3-fold in DMSO and further diluted 1:100 with melanophore assay buffer (MAB)+10 nM Melatonin to yield 11 point concentration response curves. Following 2 hour incubation with MAB+1% DMSO+10 nM Melatonin, initial transmittance is read on a TwisterII/Spectramax plate reader. Compounds are then added to the cells and incubated for 1 hour, and final transmittance is read as before. Results are compared to vehicle (MAB+1% DMSO+10 nM Melatonin) and to a positive control (MAB+1% DMSO+10 nM Melatonin+200 nM alpha-MSH). Data are calculated for each well as follows: 1-(Transmitance-final/Transmitance-initial). Each well result is then normalized to alpha-MSH, the system max control for Gs/Gq coupled receptors using the following equation: (ObjX−Control1)/(Control2−Control1)*100. The percent system max is used to generate the pEC50 using the equation: y=((Vmax*x̂n)/(K̂n+x̂n))+Y2. Acceptable Z-prime values should be >0.4. Compounds of the present invention have a pEC50≧5.0 in the above described assay.

SMILES strings stand for the structures. Some results are limits rather than exact numbers.

`COc1ccc(S(=O)(=O)N2CCN(S(=O)(=O)c3ccc(-c4cnco4)cc3)CC2)cc1OC` [Example 2, 1-{[3,4-bis(methyloxy)phenyl]sulfonyl}-4-{[4-(1,3-oxazol-5-yl)phenyl]sulfonyl}piperazine] had an Emax of 51 to 75% and an EC50 of 0.126 to 1 µM. The matching figures for `CCCN(C1CCN(S(=O)(=O)c2ccc(OC)c(OC)c2)C1)S(=O)(=O)c1ccc(OC)c(OC)c1` (centres unmarked) [Example 56, N-(1-{[3,4-bis(methyloxy)phenyl]sulfonyl}-3-pyrrolidinyl)-3,4-bis(methyloxy)-N-propylbenzenesulfonamide]: 0 to 50% and 0.126 to 1 µM.

Take `COc1ccc(S(=O)(=O)N2[C@H](C)CN(S(=O)(=O)c3ccc(-c4cnco4)cc3)C[C@@H]2C)cc1OC` [Example 34, 1-{[3,4-bis(methyloxy)phenyl]sulfonyl}-2,6-cis-dimethyl-4-{[4-(1,3-oxazol-5-yl)phenyl]sulfonyl}piperazine]: the Emax lay within 51 to 75% and the EC50 was 1.26 to 10 µM. The matching figures for `COc1ccc(S(=O)(=O)N2C[C@H](C)N(S(=O)(=O)c3ccc4c(c3)OCO4)C[C@@H]2C)cc1OC` [Example 70, (2S,5S)-1-(1,3-benzodioxol-5-ylsulfonyl)-4-{[3,4-bis(methyloxy)phenyl]sulfonyl}-2,5-dimethylpiperazine]: over 100% and 0.126 to 1 µM. The like results for `COc1ccc(S(=O)(=O)N(C)CCN(C)S(=O)(=O)c2ccc(OC)c(OC)c2)cc1F` [Example 11, N-{2-[{[3,4-bis(methyloxy)phenyl]sulfonyl}(methyl)amino]ethyl}-3-fluoro-N-methyl-4-(methyloxy)benzenesulfonamide] were, in that order, 0 to 50% and 0.126 to 1 µM. The matching figures for `COc1ccc(S(=O)(=O)N2CCCCC(N(C)S(=O)(=O)c3ccc(OC)c(OC)c3)C2)cc1OC` (centres unmarked) [Example 92]: 51 to 75% and 1.26 to 10 µM. `COc1ccc(S(=O)(=O)N2CCN(S(=O)(=O)c3ccc(OC)c(OC)c3)CC(F)(F)C2)cc1OC` [Example 53, 1,4-bis{[3,4-bis(methyloxy)phenyl]sulfonyl}-6,6-difluorohexahydro-1H-1,4-diazepine] gave an Emax of 51 to 75% and an EC50 of 0.126 to 1 µM. For the molecule `CCc1cc(S(=O)(=O)N(C)CCN(C)S(=O)(=O)c2ccc(OC)c(OC)c2)ccc1OC` [Example 43, N-{2-[{[3,4-bis(methyloxy)phenyl]sulfonyl}(methyl)amino]ethyl}-N-methyl-3-ethyl-4-(methyloxy)benzenesulfonamide], the Emax lay within 0 to 50% and the EC50 is 0.126 to 1 µM.

As for `COc1ccc(S(=O)(=O)N(C)CCN(C)S(=O)(=O)c2ccc3c(c2)OCCO3)cc1OC` [Example 13, N-{2-[{[3,4-bis(methyloxy)phenyl]sulfonyl}(methyl)amino]ethyl}-N-methyl-2,3-dihydro-1,4-benzodioxin-6-sulfonamide], the Emax was 51 to 75% and the EC50 is 1.26 to 10 µM. The matching figures for `COc1ccc(S(=O)(=O)N2CCC(N(CC(C)C)S(=O)(=O)c3ccc(OC)c(OC)c3)C2)cc1OC` (centres unmarked) [Example 57, N-(1-{[3,4-bis(methyloxy)phenyl]sulfonyl}-3-pyrrolidinyl)-3,4-bis(methyloxy)-N-(2-methylpropyl)benzenesulfonamide]: 51 to 75% and 1.26 to 10 µM. The like results for `COc1ccc(S(=O)(=O)NC2CCCCN(S(=O)(=O)c3ccc(OC)c(OC)c3)C2)cc1OC` (centres unmarked) [Example 25, N-(1-{[3,4-bis(methyloxy)phenyl]sulfonyl}hexahydro-1H-azepin-3-yl)-3,4-bis(methyloxy)benzenesulfonamide] were, in that order, 0 to 50% and 1.26 to 10 µM. The molecule `COc1ccc(S(=O)(=O)N(C)CCN(C)S(=O)(=O)c2ccc(OC)c(OC(F)(F)F)c2)cc1OC` [Example 31, N-methyl-N-{2-[methyl({4-(methyloxy)-3 [(trifluoromethyl)oxy]phenyl}sulfonyl)amino]ethyl}-3,4-bis(methyloxy)benzenesulfonamide] had an Emax of 0 to 50% and an EC50 of 0.126 to 1 µM. The matching figures for `COc1ccc(S(=O)(=O)N(C)CCN(C)S(=O)(=O)c2ccc3c(c2)OCCN3C)cc1OC` [Example 12, N-methyl-N-{2-[{[3,4-bis(methyloxy)phenyl]sulfonyl}(methyl)amino]ethyl}-4-methyl-3,4-dihydro-2H-1,4-benzoxazine-7-sulfonamide]: 76 to 100% and 1.26 to 10 µM.

Molecule `COc1ccc(S(=O)(=O)N(C[C@H]2CCCN2S(=O)(=O)c2ccc(OC)c(OC)c2)C(C)C)cc1OC` [Example 100, N-[((2R)-1-{[3,4-bis(methyloxy)phenyl]sulfonyl}-2-pyrrolidinyl)methyl]-N-(1-methylethyl)-3,4-bis(methyloxy)benzenesulfonamide] had an Emax of over 100% and an EC50 of 0.126 to 1 µM.

On to `COc1ccc(S(=O)(=O)N2CCC(NS(=O)(=O)c3cccc4cccnc34)C2)cc1OC` (centres unmarked) [Example 16, N-(1-{[3,4-bis(methyloxy)phenyl]sulfonyl}-3-pyrrolidinyl)-8-quinolinesulfonamide], for which the EC50 is 1.26 to 10 µM.

`COc1ccc(S(=O)(=O)N2C[C@@H](C)N(S(=O)(=O)c3ccc(OC)c(OC)c3)[C@@H](C)C2)cc1` [Example 35, 1-{[3,4-bis(methyloxy)phenyl]sulfonyl}-2,6-cis-dimethyl-4-{[4-(methyloxy)phenyl]sulfonyl}piperazine] had a maximum response (Emax) of 51 to 75% and an EC50 of 0.126 to 1 µM. The matching figures for `COc1ccc(S(=O)(=O)N2C[C@@H]3C[C@H]2CN3S(=O)(=O)c2ccc(OC)c(OC)c2)cc1OC` [Example 86]: 76 to 100% and 1.26 to 10 µM. The like results for `COc1ccc(S(=O)(=O)N(C)C[C@@H]2CCCN2S(=O)(=O)c2ccc(OC)c(OC)c2)cc1OC` [Example 94, N-[((2S)-1-{[3,4-bis(methyloxy)phenyl]sulfonyl}-2-pyrrolidinyl)methyl]-N-methyl-3,4-bis(methyloxy)benzenesulfonamide] were, in that order, 76 to 100% and 1.26 to 10 µM. `COc1ccc(S(=O)(=O)N2C[C@@H](C)N(S(=O)(=O)c3ccc4oc(=O)ccc4c3)[C@@H](C)C2)cc1OC` [Example 37, 6-[(4-{[3,4-bis(methyloxy)phenyl]sulfonyl}-2,6-cis-dimethyl-1-piperazinyl)sulfonyl]-2H-chromen-2-one] had an Emax of 0 to 50% and an EC50 of 1.26 to 10 µM. The like results for `COc1ccc(S(=O)(=O)N2CCN(S(=O)(=O)c3ccc(OC)c(OC)c3)C(=O)C2)cc1OC` [Example 76, 1,4-bis{[3,4-bis(methyloxy)phenyl]sulfonyl}-2-piperazinone] were, in that order, 51 to 75% and 1.26 to 10 µM.

Consider `COc1ccc(S(=O)(=O)N2CCN(S(=O)(=O)c3ccc(OC)c(OC)c3)C2=O)cc1OC` [Example 23, 1,3-bis{[3,4-bis(methyloxy)phenyl]sulfonyl}-2-imidazolidinone], for which the Emax was 0 to 50% and the EC50 was 1.26 to 10 µM. The matching figures for `CC[C@@H]1CN(S(=O)(=O)c2ccc(OC)c(OC)c2)[C@@H](CC)CN1S(=O)(=O)c1ccc(OC)c(OC)c1` [Example 45, (2R,5S)-1,4-bis{[3,4-bis(methyloxy)phenyl]sulfonyl}-2,5-diethylpiperazine]: 76 to 100% and 1.26 to 10 µM. The molecule `COc1ccc(S(=O)(=O)N2C[C@H](C)N(S(=O)(=O)c3ccc(OC)c(OC)c3)C[C@@H]2C)cc1` [Example 72, (2S,5S)-1-{[3,4-bis(methyloxy)phenyl]sulfonyl}-2,5-dimethyl-4-{[4-(methyloxy)phenyl]sulfonyl}piperazine] gave an Emax of over 100% and an EC50 of 0.126 to 1 µM.

For `COc1ccc(S(=O)(=O)N2C[C@H](C)N(S(=O)(=O)c3ccc(OC)c(OC)c3)C[C@@H]2C)cc1OC` [Example 47, (2S,5S)-1,4-bis{[3,4-bis(methyloxy)phenyl]sulfonyl}-2,5-dimethylpiperazine], the EC50 was under 0.126 µM.

`COc1ccc(S(=O)(=O)N2CC[C@H](N(C)S(=O)(=O)c3ccc(OC)c(OC)c3)C2)cc1OC` (stereo in doubt) [Example 84]: the Emax lay in the range of 51 to 75% and the EC50 was 1.26 to 10 µM.

Molecule `CCc1cc(S(=O)(=O)N2CCN(S(=O)(=O)c3ccc(OC)c(OC)c3)CC2)ccc1OC` [Example 64, 1-{[3,4-bis(methyloxy)phenyl]sulfonyl}-4-{[3-ethyl-4-(methyloxy)phenyl]sulfonyl}piperazine] had a maximal effect (Emax) of 76 to 100% and an EC50 of 0.126 to 1 µM.
